Assay [1] deals with cathepsin L-type protease activity of hair extract. As to the kind of experiment: peptidyl-AMC protease assay of hair fibre extract. Format: biochemical, human. As to the method:
Hair fibres taken from approx. 5 mm from the scalps of male and female individuals, aged 25-35, were cleaned, dried and then ground in liquid N2, and homogenised with an Ystral Homogeniser (high shear) using a 10 mm probe in extraction buffer (50 mM Citrate-Phosphate pH6.0, 2M NaCl).
Triton X-100 (2% stock) was added to the homogenate to a final concentration of 0.1%, and intermittently mixed by gentle agitation and incubated on ice for 1 hour. Large hair debris was allowed to precipitate and the solution was centrifuged at 13000 rpm for 5 minutes to remove insoluble protein. The resulting supernatant, containing soluble protein was dialysed (MWCO ca […]) in 50 mM citrate-phosphate, pH 6.0. Glycerol was added to the dialysed extract to 20% (v/v). The extracts were then aliquotted and stored at −20° C. until required.
With the above information, it was decided to investigate the protease profile of the hair extracts with the use of more specific peptide substrates (peptidyl-7-amido-4-methylcoumarin (peptidyl-AMC) substrates). Seven peptidyl-AMC substrates were used to study the protease types within the hair extract. These were selected on the basis of their specificity for individual protease species.
Stock solutions of each peptidyl-AMC substrate (Bachem) were prepared at 10 mM in DMSO and stored in aliquots at 4° C. Each aliquot was diluted to 1 mM with MQ water, prior to use. All assays (100 μl final volume) were routinely conducted in triplicate. For the measurement of cysteine protease activity, the standard assay contained 50 mM citrate-phosphate buffer pH 6.0, 100 μM peptidyl-AMC, 5 mM cysteine and approximately 1 μg protein extract. The assays were initiated by the addition of substrate and incubated at 30° C. for 2 hours. The reactions were terminated with the addition of 1 ml ‘stop’ solution (100 mM sodium monochloroacetate, 30 mM sodium acetate, 70 mM acetic acid).
The hydrolysed AMC was measured with the use of a fluorimeter set to 370 nm (excitation) and 460 nm (emission). Protease activity was quantified using standard concentrations of AMC. The fluorescence of each substrate and the hair extract were also measured and these values subtracted from the final fluorescence of each reaction, to give the value of fluorescence increase due to AMC liberation.

In assay [2] the target is T1, human steroid sulphatase (Homo sapiens, UniProt P08842).
T1 sequence (P08842 22-583): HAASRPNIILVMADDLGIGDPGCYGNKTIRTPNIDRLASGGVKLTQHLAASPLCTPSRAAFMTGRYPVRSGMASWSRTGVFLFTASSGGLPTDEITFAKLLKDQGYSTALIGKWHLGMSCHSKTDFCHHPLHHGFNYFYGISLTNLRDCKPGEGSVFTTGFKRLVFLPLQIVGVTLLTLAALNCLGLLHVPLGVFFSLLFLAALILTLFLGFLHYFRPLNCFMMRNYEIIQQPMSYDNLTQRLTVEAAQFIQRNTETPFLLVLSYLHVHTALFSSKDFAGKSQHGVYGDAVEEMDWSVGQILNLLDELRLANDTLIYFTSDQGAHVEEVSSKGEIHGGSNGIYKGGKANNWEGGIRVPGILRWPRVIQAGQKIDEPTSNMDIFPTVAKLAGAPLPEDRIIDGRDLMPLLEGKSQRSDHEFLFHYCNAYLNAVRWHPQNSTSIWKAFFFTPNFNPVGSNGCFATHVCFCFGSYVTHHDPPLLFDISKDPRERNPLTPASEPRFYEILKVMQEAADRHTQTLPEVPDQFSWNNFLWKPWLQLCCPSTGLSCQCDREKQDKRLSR
Conditions: substrate cholesterol-3-sulphate; cited from earlier work.

Setting [3] is: hair fibre extract, substrate z-Phe-Arg-AMC.

The source of these data is patent US6399052B2, “Treating hair by targeting enzymes” (Unilever Home & Personal Care USA division of Conopco, Inc., priority 1999, dated 2002).

Peptide text beside a SMILES is read from it. * marks the point of attachment. AMC = Cc1cc(=O)oc2cc(N*)ccc12; Cbz = O=C(OCc1ccccc1)*

For `CC(C)C[C@H](NC(=O)[C@H]1O[C@@H]1C(=O)O)C(=O)NCCCCN=C(N)N` (relative stereo) [E-6464, L-trans-epoxysuccinyl-leucylamido(4-guanido)butane], in assay [1] (setting [3]), the “inhibition of the z-Phe-Arg-AMC hydrolysing activity of hair extract” value was “potently inhibited”.

Take `CC(C)CCC[C@@H](C)[C@H]1CC[C@H]2[C@@H]3CC=C4C[C@@H](OS(=O)(=O)O)CC[C@]4(C)[C@H]3CC[C@]12C` [cholesterol-3-sulphate]: the Km in assay [2] was 5 µM.

For the compound `N[C@@H](CS)C(=O)O` [cysteine], the “stimulation of the z-Phe-Arg-AMC hydrolysing activity of hair extract” value in assay [1] (setting [3]) is given as “stimulated”.

As to `Cc1cc(=O)oc2cc(NC(=O)C(CCCN=C(N)N)NC(=O)C(Cc3ccccc3)NC(=O)OCc3ccccc3)ccc12` (stereo not drawn) [z-Phe-Arg-AMC] (Cbz-Phe-Arg-{AMC}; configuration not given here), the “apparent Vmax of cathepsin L-type activity” value in assay [1] (hair extract, 1 mg of extract from approx. 9 g hair) is on record as 1.66 nmoles AMC produced per minute per mg hair extract. Also, the “hydrolysis by the hair extracts compared with the other peptidyl-AMC substrates” value in assay [1] (seven peptidyl-AMC substrates, 100 μM, pH 6.0, 30° C., 2 hours) is reported as “most hydrolysed”.

In general, Km refers to the concentration of substrate that gives half-maximal velocity.
